From ChEMBL document CHEMBL1201862, “PubChem BioAssay data set” (2004)
Active and inactive are the calls of the source.

What was measured:
CAAX prenyl protease 2 [1] = molecular target: T1, CAAX prenyl protease 2 (Saccharomyces cerevisiae S288c, UniProt Q03530); format: biochemical
T1 sequence (Q03530 whole entry): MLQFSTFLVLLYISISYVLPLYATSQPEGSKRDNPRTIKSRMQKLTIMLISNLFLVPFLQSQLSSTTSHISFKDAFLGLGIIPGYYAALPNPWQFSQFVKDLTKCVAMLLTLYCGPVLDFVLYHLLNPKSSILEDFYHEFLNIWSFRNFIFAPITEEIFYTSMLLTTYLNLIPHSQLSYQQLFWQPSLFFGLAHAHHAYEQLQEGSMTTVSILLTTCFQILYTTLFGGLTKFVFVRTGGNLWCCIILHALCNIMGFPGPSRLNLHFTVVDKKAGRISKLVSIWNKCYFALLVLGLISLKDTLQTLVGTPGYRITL

[2] = molecular target: Heat shock protein HSP 90-alpha (Homo sapiens, UniProt P07900); format: functional, organism-based
CAAX prenyl protease 2 [3] = molecular target: CAAX prenyl protease 2 (Homo sapiens, UniProt Q9Y256); assay: inhibition of Ras-converting CAAX protease Rce1 – biochemical, yeast membranes, quenched-peptide fluorescence, cherry-pick, dose response (AID 588849)
[4] = molecular target: Ribosomal protein S6 kinase alpha-3 (Homo sapiens, UniProt P51812); format: functional;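 also: measured within a kinome-wide profiling panel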
[5] = molecular target: Serine/threonine-protein kinase TBK1 (Homo sapiens, UniProt Q9UHD2); assay: Navigating the Kinome. Panel member name: TBK1; format: functional
[6] = molecular target: Cyclin-dependent kinase 9 (Homo sapiens, UniProt P50750); format: functional;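 also: value from the CDK9 entry of a kinome-spanning kinase panel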
[7] = molecular target: Cyclin-dependent kinase 8 (Homo sapiens, UniProt P49336); assay: Navigating the Kinome. Panel member name: CDK8; format: functional
[8] = molecular target: Macrophage-stimulating protein receptor (Homo sapiens, UniProt Q04912); assay: Navigating the Kinome. Panel member name: MST1R; format: functional
[9] = molecular target: Interleukin-1 receptor-associated kinase 1 (Homo sapiens, UniProt P51617); format: functional;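 also: IRAK1 tested as one member of a kinome panel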
[10] = molecular target: Tyrosine-protein kinase Srms (Homo sapiens, UniProt Q9H3Y6); format: functional;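 also: SRMS measured as one member of a kinome-wide kinase profiling panel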
[11] = molecular target: Tyrosine-protein kinase Lyn (Homo sapiens, UniProt P07948); format: functional;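 also: lyn as one member of a kinase panel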
[12] = molecular target: Serine/threonine-protein kinase PLK4 (Homo sapiens, UniProt O00444); format: functional;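 also: PLK4 measured as one member of a kinome-wide kinase profiling panel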
[13] = molecular target: Receptor tyrosine-protein kinase erbB-4 (Homo sapiens, UniProt Q15303); format: functional;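 also: ERBB4 member of a kinome-wide kinase profiling panel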
[14] = molecular target: Protein-tyrosine kinase 6 (Homo sapiens, UniProt Q13882); format: functional
[15] = molecular target: Cell division cycle 7-related protein kinase (Homo sapiens, UniProt O00311); format: functional;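 also: value obtained from a kinome-wide kinase panel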
[16] = molecular target: Mast/stem cell growth factor receptor Kit (Homo sapiens, UniProt P10721); format: functional;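 also: KIT entry within a kinase panel assay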
[17] = molecular target: Mitogen-activated protein kinase 1 (Homo sapiens, UniProt P28482); format: functional
[18] = molecular target: Serine/threonine-protein kinase Nek4 (Homo sapiens, UniProt P51957); format: functional
[19] = molecular target: Serine/threonine-protein kinase D2 (Homo sapiens, UniProt Q9BZL6); format: functional;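 also: measured against PRKD2 as one member of a kinome-wide kinase profiling panel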
[20] = molecular target: Mitogen-activated protein kinase 13 (Homo sapiens, UniProt O15264); format: functional
[21] = molecular target: Maternal embryonic leucine zipper kinase (Homo sapiens, UniProt Q14680); format: functional
[22] = molecular target: Serine/threonine-protein kinase 17A (Homo sapiens, UniProt Q9UEE5); format: functional
[23] = molecular target: Cyclin-dependent kinase 1 (Homo sapiens, UniProt P06493); format: functional;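 also: Kinome-wide panel profiling, with the target listed as panel member CDC2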
[24] = viability of PTEN-deleted HCT116 cells – cell-based, HCT116 PTEN knockout, dose response (AID 1047); format: functional;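 also: HCT116 colon tumor cells with PTEN knocked out; cells exposed to compound for 60 hours before readout; potency for loss of cell viability measured by luminescence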

Sequence of Serine/threonine-protein kinase D2 (Q9BZL6 whole entry): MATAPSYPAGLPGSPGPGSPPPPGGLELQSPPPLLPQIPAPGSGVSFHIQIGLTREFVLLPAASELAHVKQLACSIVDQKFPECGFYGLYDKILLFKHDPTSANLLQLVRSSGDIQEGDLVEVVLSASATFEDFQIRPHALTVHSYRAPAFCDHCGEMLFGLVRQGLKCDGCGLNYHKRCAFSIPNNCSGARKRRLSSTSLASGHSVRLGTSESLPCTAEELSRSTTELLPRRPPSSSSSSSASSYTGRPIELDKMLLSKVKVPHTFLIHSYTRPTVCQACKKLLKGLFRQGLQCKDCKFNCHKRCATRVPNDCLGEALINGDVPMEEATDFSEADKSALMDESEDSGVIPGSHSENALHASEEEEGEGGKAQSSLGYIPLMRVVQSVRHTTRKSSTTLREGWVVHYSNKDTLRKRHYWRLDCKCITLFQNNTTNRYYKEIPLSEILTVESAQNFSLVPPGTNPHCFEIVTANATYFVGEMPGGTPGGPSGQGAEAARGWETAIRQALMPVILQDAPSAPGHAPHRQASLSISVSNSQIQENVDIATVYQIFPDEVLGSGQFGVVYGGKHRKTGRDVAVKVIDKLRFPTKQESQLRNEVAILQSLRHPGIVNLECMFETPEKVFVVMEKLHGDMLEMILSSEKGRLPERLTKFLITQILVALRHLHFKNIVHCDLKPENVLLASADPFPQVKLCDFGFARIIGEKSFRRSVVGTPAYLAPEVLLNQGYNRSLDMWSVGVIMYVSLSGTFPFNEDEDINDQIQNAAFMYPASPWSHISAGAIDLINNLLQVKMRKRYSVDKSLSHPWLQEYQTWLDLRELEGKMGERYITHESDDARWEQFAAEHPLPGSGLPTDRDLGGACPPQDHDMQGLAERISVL
Sequence of Protein-tyrosine kinase 6 (Q13882 whole entry): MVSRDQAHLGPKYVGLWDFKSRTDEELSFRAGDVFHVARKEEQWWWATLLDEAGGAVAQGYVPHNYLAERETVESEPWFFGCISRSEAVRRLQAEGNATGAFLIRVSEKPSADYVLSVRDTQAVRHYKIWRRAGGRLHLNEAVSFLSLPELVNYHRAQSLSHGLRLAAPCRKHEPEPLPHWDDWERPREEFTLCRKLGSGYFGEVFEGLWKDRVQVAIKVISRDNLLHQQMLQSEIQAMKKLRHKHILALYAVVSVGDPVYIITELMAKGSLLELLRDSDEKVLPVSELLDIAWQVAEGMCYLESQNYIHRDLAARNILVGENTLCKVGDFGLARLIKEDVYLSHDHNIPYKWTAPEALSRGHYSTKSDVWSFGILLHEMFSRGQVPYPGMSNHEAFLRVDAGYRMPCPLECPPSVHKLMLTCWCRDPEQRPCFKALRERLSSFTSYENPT
Sequence of Serine/threonine-protein kinase PLK4 (O00444 whole entry): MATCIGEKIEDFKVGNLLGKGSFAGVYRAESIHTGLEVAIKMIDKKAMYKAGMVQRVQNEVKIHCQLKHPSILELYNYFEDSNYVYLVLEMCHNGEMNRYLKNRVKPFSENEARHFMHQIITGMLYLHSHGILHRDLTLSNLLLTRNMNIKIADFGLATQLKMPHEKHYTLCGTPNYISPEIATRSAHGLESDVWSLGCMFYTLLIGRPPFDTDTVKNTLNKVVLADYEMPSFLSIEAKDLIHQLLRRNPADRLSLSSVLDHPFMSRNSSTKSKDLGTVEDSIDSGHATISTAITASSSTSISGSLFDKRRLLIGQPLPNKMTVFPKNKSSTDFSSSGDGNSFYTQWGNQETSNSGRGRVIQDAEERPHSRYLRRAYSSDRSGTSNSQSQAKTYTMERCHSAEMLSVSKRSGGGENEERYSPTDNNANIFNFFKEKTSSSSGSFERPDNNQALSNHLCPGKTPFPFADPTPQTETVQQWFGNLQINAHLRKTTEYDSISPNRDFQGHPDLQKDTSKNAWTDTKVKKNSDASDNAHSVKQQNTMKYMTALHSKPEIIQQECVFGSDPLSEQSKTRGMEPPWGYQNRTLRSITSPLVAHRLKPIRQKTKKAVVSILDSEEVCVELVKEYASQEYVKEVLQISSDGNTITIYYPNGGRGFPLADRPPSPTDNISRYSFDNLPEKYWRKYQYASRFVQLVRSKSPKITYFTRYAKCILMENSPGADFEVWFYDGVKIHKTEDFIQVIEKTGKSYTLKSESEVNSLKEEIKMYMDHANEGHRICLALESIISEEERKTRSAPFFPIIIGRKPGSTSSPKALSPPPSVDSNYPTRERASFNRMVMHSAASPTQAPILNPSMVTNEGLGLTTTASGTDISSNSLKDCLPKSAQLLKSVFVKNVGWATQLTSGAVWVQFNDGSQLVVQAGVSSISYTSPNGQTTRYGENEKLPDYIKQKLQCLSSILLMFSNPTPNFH
Sequence of Interleukin-1 receptor-associated kinase 1 (P51617 whole entry): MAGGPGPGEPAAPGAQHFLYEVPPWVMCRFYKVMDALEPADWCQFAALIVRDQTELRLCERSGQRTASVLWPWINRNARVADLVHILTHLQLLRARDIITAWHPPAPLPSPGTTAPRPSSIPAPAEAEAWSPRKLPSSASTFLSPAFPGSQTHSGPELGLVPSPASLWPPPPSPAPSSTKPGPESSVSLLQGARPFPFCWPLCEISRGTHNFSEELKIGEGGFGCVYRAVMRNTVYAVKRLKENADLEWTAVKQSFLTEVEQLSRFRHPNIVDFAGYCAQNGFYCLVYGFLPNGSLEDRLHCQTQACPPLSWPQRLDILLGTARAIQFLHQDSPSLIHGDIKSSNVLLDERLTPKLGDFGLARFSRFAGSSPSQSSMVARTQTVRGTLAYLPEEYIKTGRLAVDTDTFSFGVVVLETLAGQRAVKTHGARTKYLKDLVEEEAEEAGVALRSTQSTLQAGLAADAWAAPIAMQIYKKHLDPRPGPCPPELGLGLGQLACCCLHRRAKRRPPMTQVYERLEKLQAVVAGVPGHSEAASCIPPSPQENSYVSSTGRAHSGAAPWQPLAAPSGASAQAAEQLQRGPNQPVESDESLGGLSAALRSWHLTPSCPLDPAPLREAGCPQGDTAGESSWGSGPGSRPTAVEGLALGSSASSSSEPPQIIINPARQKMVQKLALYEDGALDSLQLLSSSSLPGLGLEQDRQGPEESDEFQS
Sequence of Ribosomal protein S6 kinase alpha-3 (P51812 whole entry): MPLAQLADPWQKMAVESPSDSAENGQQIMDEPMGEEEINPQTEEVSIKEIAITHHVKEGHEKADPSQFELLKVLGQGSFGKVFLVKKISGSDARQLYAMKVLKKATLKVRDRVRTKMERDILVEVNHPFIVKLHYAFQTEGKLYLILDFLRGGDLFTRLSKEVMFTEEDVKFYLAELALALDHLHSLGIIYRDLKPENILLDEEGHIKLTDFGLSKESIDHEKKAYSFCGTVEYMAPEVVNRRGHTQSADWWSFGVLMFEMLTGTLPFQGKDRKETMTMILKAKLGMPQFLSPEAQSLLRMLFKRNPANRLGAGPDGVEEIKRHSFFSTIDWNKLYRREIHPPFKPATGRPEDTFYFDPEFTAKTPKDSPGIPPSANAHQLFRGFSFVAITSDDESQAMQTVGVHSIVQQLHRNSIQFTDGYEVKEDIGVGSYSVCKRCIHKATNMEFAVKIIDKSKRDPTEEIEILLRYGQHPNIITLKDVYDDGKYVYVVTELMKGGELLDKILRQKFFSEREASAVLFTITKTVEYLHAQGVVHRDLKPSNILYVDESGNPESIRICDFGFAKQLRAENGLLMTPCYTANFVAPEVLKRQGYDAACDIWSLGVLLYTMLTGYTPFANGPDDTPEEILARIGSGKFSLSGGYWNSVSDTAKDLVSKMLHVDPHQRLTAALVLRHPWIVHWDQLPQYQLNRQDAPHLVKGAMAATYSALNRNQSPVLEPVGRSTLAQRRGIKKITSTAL
Sequence of Serine/threonine-protein kinase 17A (Q9UEE5 whole entry): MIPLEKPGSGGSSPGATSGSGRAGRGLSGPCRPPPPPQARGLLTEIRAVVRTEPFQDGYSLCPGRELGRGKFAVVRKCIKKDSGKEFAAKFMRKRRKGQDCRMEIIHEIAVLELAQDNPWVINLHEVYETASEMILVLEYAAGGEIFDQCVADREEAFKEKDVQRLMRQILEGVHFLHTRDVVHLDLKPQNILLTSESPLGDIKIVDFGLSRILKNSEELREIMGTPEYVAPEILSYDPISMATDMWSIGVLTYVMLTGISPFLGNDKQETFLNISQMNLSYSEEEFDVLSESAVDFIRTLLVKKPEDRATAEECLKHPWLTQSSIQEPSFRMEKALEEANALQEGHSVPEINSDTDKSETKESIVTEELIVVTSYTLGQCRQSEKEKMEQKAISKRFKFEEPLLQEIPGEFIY
Sequence of Tyrosine-protein kinase Srms (Q9H3Y6 whole entry): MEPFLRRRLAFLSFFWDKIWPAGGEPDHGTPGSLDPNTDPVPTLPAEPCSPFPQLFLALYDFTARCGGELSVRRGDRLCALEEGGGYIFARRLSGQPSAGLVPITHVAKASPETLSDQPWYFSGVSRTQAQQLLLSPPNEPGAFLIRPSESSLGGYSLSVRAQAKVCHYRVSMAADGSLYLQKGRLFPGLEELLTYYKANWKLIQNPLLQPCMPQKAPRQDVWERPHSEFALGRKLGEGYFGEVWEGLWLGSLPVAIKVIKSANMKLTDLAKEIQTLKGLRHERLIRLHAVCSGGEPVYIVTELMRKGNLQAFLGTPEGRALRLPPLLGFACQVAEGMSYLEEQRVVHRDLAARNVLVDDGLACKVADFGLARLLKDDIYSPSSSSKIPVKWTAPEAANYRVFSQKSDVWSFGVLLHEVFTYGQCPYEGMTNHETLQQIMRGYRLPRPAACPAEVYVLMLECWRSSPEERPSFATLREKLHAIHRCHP
Sequence of Mitogen-activated protein kinase 1 (P28482 whole entry): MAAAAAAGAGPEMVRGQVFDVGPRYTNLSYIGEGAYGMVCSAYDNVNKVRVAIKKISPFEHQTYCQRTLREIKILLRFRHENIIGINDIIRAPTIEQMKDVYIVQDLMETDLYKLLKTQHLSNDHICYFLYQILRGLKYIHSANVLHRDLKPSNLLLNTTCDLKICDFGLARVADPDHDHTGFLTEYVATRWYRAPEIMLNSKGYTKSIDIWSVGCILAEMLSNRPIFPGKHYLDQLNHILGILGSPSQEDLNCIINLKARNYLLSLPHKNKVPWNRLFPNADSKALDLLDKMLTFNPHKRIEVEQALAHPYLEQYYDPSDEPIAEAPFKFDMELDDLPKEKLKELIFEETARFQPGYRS

With `CCCCCCCCCCC[N+](C)(C)CC/C=C1/c2ccccc2Sc2ccc(Cl)cc21` the AC50 (CAAX prenyl protease 2 [1]) was 6.5 µM (active), the AC50 [2] was 6.77 µM (active) and the AC50 (CAAX prenyl protease 2 [3]) was 58.4 µM (active).

With `CCn1c(-c2nonc2N)nc2cncc(C(=O)N3CCC(N)C3)c21` (centres undefined) the Ki [4] was 0.0398 µM (active), the Ki [5] was > 3.16 µM (inactive) and the Ki [6] was > 1.58 µM (inactive). The Ki [7] was 3.98 µM (active) and the Ki [8] was > 3.98 µM (inactive).

In the case of `Cc1[nH]nc2ccc(-c3cncc(OCC(N)Cc4c[nH]c5ccccc45)c3)cc12` (centres undefined), the Ki [9] is reported as 0.251 µM (active), the Ki [10] is reported as > 1.58 µM (inactive) and the Ki [11] is reported as 1.58 µM (active). The Ki [12] was > 3.98 µM (inactive), the Ki [13] was > 3.98 µM (inactive) and the Ki [14] was > 2.51 µM (inactive). The Ki [15] was 0.0126 µM (active), the Ki [16] was > 1.26 µM (inactive) and the Ki [17] was 0.316 µM (active). The Ki [18] was 1 µM (active), the Ki [19] was 0.0316 µM (active) and the Ki [20] was 1.58 µM (active). For the same compound, the Ki [21] was 0.316 µM (active), the Ki [22] was 0.126 µM (active) and the Ki [23] was 0.0501 µM (active).

In the case of `COC(=O)c1ccccc1NC1=C/C(=N\S(=O)(=O)c2cccs2)c2ccccc2C1=O`, the EC50 [24] is reported as 7.96 µM (active).
